From PMC6053601, “The role of the jaw subdomain of peptidoglycan glycosyltransferases for lipid II polymerization” (The Cell Surface, 2018) come the findings set out here.

Assay [1] has as its target T1, Staphylococcus aureus monofunctional glycosyltransferase (SaMGT) (Staphylococcus aureus, UniProt Q7A0I6).
T1 construct: gene mgt; wild-type full-length SaMGT (residues Q28-R269)
The assay is described as follows: ITC (VP-ITC, […] °C, sequential binding site model).

Assay [2] deals with T2, Staphylococcus aureus monofunctional glycosyltransferase (SaMGT) (Staphylococcus aureus, UniProt Q7A0I6, E100Q).
T2 construct: gene mgt
The assay can be described thus: X-ray crystal structure, […] Å (re-refinement of 3HZS, polder omit maps). In kind it is binding.

In turn, `C=C(C/C=C(\C)CCC=C(C)C)CCC(C)(C)/C=C/CC/C(C)=C\CO[C@H](COP(=O)(O)O[C@H]1O[C@H](C(N)=O)[C@@](C)(O)[C@H](OC(N)=O)[C@H]1O[C@@H]1O[C@H](CO[C@@H]2O[C@H](CO)[C@@H](O)[C@H](O)[C@H]2O)[C@@H](O[C@@H]2O[C@H](C)[C@@H](O[C@@H]3O[C@H](C(=O)NC4=C(O)CCC4=O)[C@H](O)[C@H](O)[C@H]3O)[C@H](O)[C@H]2NC(C)=O)[C@H](O)[C@H]1NC(C)=O)C(=O)O` [MoeA, moenomycin A] returned a Kd in assay [1] of 540 nM. Further, the “X-ray crystal structure, 2.1 Å (re-refinement of 3HZS, polder omit maps)” value in assay [2] is on record as “Overall view of the re-refined structure of SaMGT E100Q mutant with bound MoeA (PDB ID code 6FTB)”.
